Test results: US20200078468A1, “NEUROTENSIN RECEPTOR BINDING CONJUGATES AND FORMULATIONS THEREOF” (priority 2016, published 2020)
Like-named read-outs stand apart in the source and are kept apart here. Numbered stars: 1 amine (or outer) side, 2 acyl side, 3 side chain; on linkers, the order of the positions; unused ones are H or OH. Bridge positions count the residues as written; N and C are the ends. Square brackets hold non-standard residues; d marks the D form. Peptide text beside a SMILES is read from it. I, II: the chains in the order shown. * marks the point of attachment. X5 = CC(C)C[C@H](NC(=O)[C@H](Cc1ccccc1)NC(=O)CCCCCN1C(=O)CC(*)C1=O)B1O[C@@H]2[C@@H]3C[C@H](C[C@]2(C)O1)C3(C)C; SN38(20-O) = CCc1c2c(nc3ccc(O)cc13)-c1cc3c(c(=O)n1C2)COC(=O)[C@@]3(CC)O*; Hexanoyl(6-succinimido-3yl) = O=C1CC([*:1])C(=O)N1CCCCCC(=O)[*:2]; NMeR = CN[C@@H](CCCNC(=N)N)C(=O)O; Pen = CC(C)(S)[C@H](N)C(=O)O; Tle = CC(C)(C)[C@H](N)C(=O)O

Tests used:
human NTSR1 = biological target: T1, human NTSR1 (Homo sapiens, UniProt P30989); assay: radioligand-receptor binding assay, [125I] labeled neurotensin (Eurofins Panlabs); details: [125I] neurotensin 0.02 nM, membranes from NTSR1 expressing HEK-293 cells, 45 minute incubation, Cheng and Prusoff; read-out: NTSR1 binding Ki
T1 construct: host or cells: HEK-293 cells (membrane preparations)
T1 sequence (P30989 whole entry): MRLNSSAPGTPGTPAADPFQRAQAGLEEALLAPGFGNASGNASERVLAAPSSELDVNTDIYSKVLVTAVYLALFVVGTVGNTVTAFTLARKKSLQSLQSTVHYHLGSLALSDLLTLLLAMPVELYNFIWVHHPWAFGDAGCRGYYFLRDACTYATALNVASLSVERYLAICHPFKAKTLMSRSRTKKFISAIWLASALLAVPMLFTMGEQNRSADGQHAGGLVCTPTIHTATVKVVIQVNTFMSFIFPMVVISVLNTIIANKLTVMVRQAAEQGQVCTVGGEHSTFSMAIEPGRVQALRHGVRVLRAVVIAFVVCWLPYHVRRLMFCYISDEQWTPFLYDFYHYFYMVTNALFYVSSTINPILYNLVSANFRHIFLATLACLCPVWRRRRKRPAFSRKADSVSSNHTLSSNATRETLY
Description: Conjugates were assessed in an in vitro assay evaluating binding to NTSR1. A radioligand-receptor binding assay was conducted at Eurofins Panlabs (Taiwan) to determine the affinity of conjugates described herein to NTSR1. The assay measures binding of radiolabeled ligand, [^125I] labeled neurotensin, to human NTSR1 using membrane preparations from NTSR1 expressing HEK-293 cells (Human embryonic kidney cells 293). Membranes were incubated with radiolabeled neurotensin (0.02 nM) in the presence of conjugate/compound starting at a dose of either 100 nM, or 10 nM, using 3× serial dilutions to obtain a 6-pt curve. After a 45 minute incubation, membranes were filtered and washed 3× and counted to determine the remaining [^125I] neurotensin bound to the receptor. IC50 values were determined by a non-linear, least squares regression analysis using MathIQ™ (ID Business Solutions Ltd., UK). The Ki values were calculated using the equation of Cheng and Prusoff (Cheng and Prusoff, Biochem. Pharmacol. 22:3099-3108, 1973) using the observed IC50 of the tested conjugate/compound, the concentration of radioligand employed in the assay, and the historical values for the Kd of the ligand obtained at Eurofins.

[1] = tested on: SW48 (human colon cancer cells); assay: inhibition of SW48 cell proliferation (CellTiter Glo); assay type: cell-based; details: 72 hrs, read-out: SW-48 proliferation IC50
Description: Conjugates were assessed in an in vitro assay evaluating inhibition of cell proliferation. SW48 (human colon cancer cells, ATCC®), cells were plated in 96 well, flat-bottomed plates (Costar) at a concentration of 5,000 cells/well. Cells were then incubated at 37° C. with 5% CO2 for 24 hrs. After 24 hrs, cells were treated with 0.01% DMSO or compound. Compounds were added at a starting dose of 10 μM and three fold serial dilutions were done for a total often points. Following compound addition, cells were incubated at 37° C. with 5% CO2 for 72 hrs. Proliferation was measured by CellTiter Glo reagent using the standard protocol (Promega) and a Glomax multi+detection system (Promega). Percent proliferation inhibition was calculated using the following formula: % inhibition=(control−treatment)/control*100. Control is defined as vehicle alone. IC50 curves were generated using the nonlinear regression analysis (four parameter) with GraphPad Prism 6.
Conjugates are assessed for receptor-dependent cytotoxicity by the difference between an NTSR1-targeting conjugate, and the corresponding conjugate with the same linker moiety and active agent where the NTSR1-targeting domain has been scrambled.

## CO[C@H]1C(=O)[C@]2(C)[C@@H](OC)C[C@H]3OC[C@@]3(OC(C)=O)[C@H]2[C@H](OC(=O)c2ccccc2)[C@]2(O)C[C@H](OC(=O)[C@H](OC(=O)CNC(=O)[C@H](CC(C)C)NC(=O)[C@H](Cc3ccccc3)NC(=O)CNC(=O)CCCCCN3C(=O)CC(SC(C)(C)[C@H](NC(C)=O)C(=O)N4CCC[C@H]4C(=O)N[C@@H](CCCNC(=N)N)C(=O)N[C@@H](CCCNC(=N)N)C(=O)N4CCC[C@H]4C(=O)N[C@@H](Cc4ccc(O)cc4)C(=O)N[C@H](C(=O)N[C@@H](CC(C)C)C(=O)O)C(C)(C)C)C3=O)[C@@H](NC(=O)OC(C)(C)C)c3ccccc3)C(C)=C1C2(C)C (stereo partly shown) [Compound 3]
Human NTSR1
  Ki: 1.64 nM

## CO[C@H]1C(=O)[C@]2(C)[C@@H](OC)C[C@H]3OC[C@@]3(OC(C)=O)[C@H]2[C@H](OC(=O)c2ccccc2)[C@]2(O)C[C@H](OC(=O)[C@H](OC(=O)OCCSSC(C)(C)[C@H](NC(C)=O)C(=O)N3CCC[C@H]3C(=O)N[C@@H](CCCNC(=N)N)C(=O)N[C@@H](CCCNC(=N)N)C(=O)N3CCC[C@H]3C(=O)N[C@@H](Cc3ccc(O)cc3)C(=O)N[C@H](C(=O)N[C@@H](CC(C)C)C(=O)O)C(C)(C)C)[C@@H](NC(=O)OC(C)(C)C)c3ccccc3)C(C)=C1C2(C)C [Compound 2]
Human NTSR1
  Ki: 3.97 nM

## COc1cc2cc(c1Cl)N(C)C(=O)C[C@H](OC(=O)[C@H](C)N(C)C(=O)CCSC1CC(=O)N(CCCNC(=O)CNC(=O)[C@H](CC(C)C)NC(=O)[C@H](Cc3ccccc3)NC(=O)CNC(=O)CCCCCN3C(=O)CC(SCCC(=O)NCCCC[C@H](NC(C)=O)C(=O)N4CCC[C@H]4C(=O)N[C@H](CCCNC(=N)N)C(=O)N[C@@H](CCCNC(=N)N)C(=O)N4CCC[C@H]4C(=O)N[C@@H](Cc4ccc(O)cc4)C(=O)N[C@H](C(=O)N[C@@H](C[Si](C)(C)C)C(=O)O)C4CCCC4)C3=O)C1=O)[C@]1(C)O[C@H]1[C@H](C)[C@@H]1C[C@@](O)(NC(=O)O1)[C@H](OC)/C=C/C=C(\C)C2 (stereo partly shown) [Compound 42]
Human NTSR1
  Ki: 0.64 nM

## CC[C@H](C)[C@H](NC(=O)[C@H](Cc1ccc(O)c(O)c1)NC(=O)[C@@H]1CCCN1C(=O)[C@H](CCCNC(=N)N)NC(=O)[C@@H](CCCNC(=N)N)NC(=O)[C@@H]1CCCN1C(=O)[C@H](CCCCNC(=O)CCSC1CC(=O)N(CCCCCC(=O)NCC(=O)N[C@@H](Cc2ccccc2)C(=O)N[C@@H](CC(C)C)C(=O)NCC(=O)NCCCN2C(=O)CC(SCCC(=O)N(C)[C@@H](C)C(=O)O[C@H]3CC(=O)N(C)c4cc(cc(OC)c4Cl)C/C(C)=C/C=C/[C@@H](OC)[C@@]4(O)C[C@H](OC(=O)N4)[C@@H](C)[C@@H]4O[C@@]34C)C2=O)C1=O)NC(C)=O)C(=O)N[C@@H](C[Si](C)(C)C)C(=O)O (stereo partly shown) [Compound 44]
Human NTSR1
  Ki: 0.23 nM

## CC[C@H](C)[C@@H]([C@@H](CC(=O)N1CCC[C@H]1[C@H](OC)[C@@H](C)C(=O)N[C@H](C)[C@@H](O)c1ccccc1)OC)N(C)C(=O)[C@@H](NC(=O)[C@H](C(C)C)N(C)C(=O)OCc1ccc(NC(=O)[C@H](CCCNC(N)=O)NC(=O)[C@@H](NC(=O)CCCCCN2C(=O)CC(SCCC(=O)NCCOCCOCCOCCOCCC(=O)NCCCC[C@H](NC(C)=O)C(=O)N3CCC[C@H]3C(=O)N[C@@H](CC(C)C)C(=O)N3CCC[C@H]3C(=O)N(C)[C@@H](CCCNC(=N)N)C(=O)N[C@H](C(=O)N[C@@H](CCCNC(=N)N)C(=O)N[C@@H](Cc3ccc(O)cc3)C(=O)O)C(C)(C)C)C2=O)C(C)C)cc1)C(C)C (stereo partly shown) [Compound 95]
[1]; NTSR1 scrambled compound
  IC50: 60.1 nM

## CCc1c2c(nc3ccc(O)cc13)-c1cc3c(c(=O)n1C2)COC(=O)[C@@]3(CC)OC(=O)CNC(=O)CNC(=O)[C@H](CC(C)C)NC(=O)[C@H](Cc1ccccc1)NC(=O)CNC(=O)CCCCCN1C(=O)CC(SC(C)(C)[C@H](NC(C)=O)C(=O)N2CCC[C@H]2C(=O)N[C@@H](CC(C)C)C(=O)N2CCC[C@H]2C(=O)N[C@@H](CCCNC(=N)N)C(=O)N[C@H](C(=O)N[C@@H](CCCNC(=N)N)C(=O)N[C@@H](Cc2ccc(O)cc2)C(=O)O)C(C)(C)C)C1=O (stereo partly shown) [Compound 99]
[1]; NTSR1 scrambled compound
  IC50: 784 nM

## CCc1c2c(nc3ccc(O)cc13)-c1cc3c(c(=O)n1C2)COC(=O)[C@@]3(CC)OC(=O)CNC(=O)CNC(=O)[C@H](CC(C)C)NC(=O)[C@H](Cc1ccccc1)NC(=O)CNC(=O)CCCCCN1C(=O)CC(SC(C)(C)[C@H](NC(C)=O)C(=O)N2CCC[C@H]2C(=O)N(C)[C@@H](CCCNC(=N)N)C(=O)N[C@@H](CCCNC(=N)N)C(=O)N2CCC[C@H]2C(=O)N[C@@H](Cc2ccc(O)cc2)C(=O)N[C@H](C(=O)N[C@@H](CC(C)C)C(=O)O)C(C)(C)C)C1=O (stereo partly drawn) [Compound 67] (I: Ac-[Pen]P[NMeR]RPY[Tle]L-OH / II: GFLGG-{SN38(20-O)}; linker I:1-II:N via Hexanoyl(6-succinimido-3yl))
[1]; NTSR1 targeted compound
  IC50: 816 nM

## CC(=O)N[C@H](C(=O)N1CCC[C@H]1C(=O)N[C@@H](CCCNC(=N)N)C(=O)N[C@@H](CCCNC(=N)N)C(=O)N1CCC[C@H]1C(=O)N[C@@H](Cc1ccc(O)cc1)C(=O)N[C@H](C(=O)N[C@@H](CC(C)C)C(=O)O)C(C)(C)C)C(C)(C)SC1CC(=O)N(CCCCCC(=O)N[C@@H](Cc2ccccc2)C(=O)N[C@@H](CC(C)C)B2O[C@@H]3[C@@H]4C[C@H](C[C@]3(C)O2)C4(C)C)C1=O (stereo partly drawn) [Compound 1] (Ac-[Pen](X5)PRRPY[Tle]L-OH)
[1]; NTSR1 targeted compound
  IC50: > 10000 nM

## CO[C@H]1C(=O)[C@]2(C)[C@@H](OC)C[C@H]3OC[C@@]3(OC(C)=O)[C@H]2[C@H](OC(=O)c2ccccc2)[C@]2(O)C[C@H](OC(=O)[C@H](OC(=O)N(C)CCN(C)C(=O)OCc3ccc(NC(=O)[C@H](CCCNC(N)=O)NC(=O)[C@@H](NC(=O)CCCCCN4C(=O)CC(SC(C)(C)[C@H](NC(C)=O)C(=O)N5CCC[C@H]5C(=O)N[C@@H](CCCCN)C(=O)N(C)[C@@H](CCCNC(=N)N)C(=O)N5CCC[C@H]5C(=O)N[C@@H](Cc5ccc(O)cc5)C(=O)N[C@H](C(=O)N[C@@H](CC(C)C)C(=O)O)C(C)(C)C)C4=O)C(C)C)cc3)[C@@H](NC(=O)OC(C)(C)C)c3ccccc3)C(C)=C1C2(C)C (stereo partly shown) [Compound 8]
[1]; NTSR1 targeted compound
  IC50: 2450 nM

## COc1cccc2c1C(=O)c1c(O)c3c(c(O)c1C2=O)C[C@@](O)(C(=O)CO)C[C@@H]3O[C@H]1C[C@H](NC(=O)OCCSSC(C)(C)[C@H](NC(C)=O)C(=O)N2CCC[C@H]2C(=O)N[C@@H](CC(C)C)C(=O)N2CCC[C@H]2C(=O)N[C@@H](CCCNC(=N)N)C(=O)N[C@H](C(=O)N[C@@H](CCCNC(=N)N)C(=O)N[C@@H](Cc2ccc(O)cc2)C(=O)O)C(C)(C)C)[C@H](O)[C@H](C)O1 [Compound 88]
[1]; NTSR1 scrambled compound
  IC50: 1940 nM

## CC[C@H](C)[C@@H]([C@@H](CC(=O)N1CCC[C@H]1[C@H](OC)[C@@H](C)C(=O)N[C@H](C)[C@@H](O)c1ccccc1)OC)N(C)C(=O)[C@@H](NC(=O)[C@H](C(C)C)N(C)C(=O)OCc1ccc(NC(=O)[C@H](CCCNC(N)=O)NC(=O)[C@@H](NC(=O)CCCCCN2C(=O)CC(SCCC(=O)NCCOCCOCCOCCOCCOCCOCCOCCOCCC(=O)NCCCC[C@H](NC(C)=O)C(=O)N3CCC[C@H]3C(=O)N(C)[C@@H](CCCNC(=N)N)C(=O)N[C@@H](CCCNC(=N)N)C(=O)N3CCC[C@H]3C(=O)N[C@@H](Cc3ccc(O)cc3)C(=O)N[C@H](C(=O)N[C@@H](CC(C)C)C(=O)O)C(C)(C)C)C2=O)C(C)C)cc1)C(C)C (stereo partly shown) [Compound 62]
[1]; NTSR1 targeted compound
  IC50: 50.1 nM

## CC[C@H](C)[C@@H]([C@@H](CC(=O)N1CCC[C@H]1[C@H](OC)[C@@H](C)C(=O)N[C@H](C)[C@@H](O)c1ccccc1)OC)N(C)C(=O)[C@@H](NC(=O)[C@H](C(C)C)N(C)C(=O)OCc1ccc(NC(=O)[C@H](CCCNC(N)=O)NC(=O)[C@@H](NC(=O)CCCCCN2C(=O)CC(SCCC(=O)NCCOCCOCCC(=O)NCCCC[C@H](NC(C)=O)C(=O)N3CCC[C@H]3C(=O)N(C)[C@@H](CCCNC(=N)N)C(=O)N[C@@H](CCCNC(=N)N)C(=O)N3CCC[C@H]3C(=O)N[C@@H](Cc3ccc(O)cc3)C(=O)N[C@H](C(=O)N[C@@H](CC(C)C)C(=O)O)C(C)(C)C)C2=O)C(C)C)cc1)C(C)C (stereo partly shown) [Compound 60]
[1]; NTSR1 targeted compound
  IC50: 44.6 nM

## CC[C@H](C)[C@@H]([C@@H](CC(=O)N1CCC[C@H]1[C@H](OC)[C@@H](C)C(=O)N[C@H](C)[C@@H](O)c1ccccc1)OC)N(C)C(=O)[C@@H](NC(=O)[C@H](C(C)C)N(C)C(=O)OCc1ccc(NC(=O)[C@H](CCCNC(N)=O)CC(=O)[C@@H](NC(=O)CCCCCN2C(=O)CC(SCCC(=O)NCCOCCOCCOCCOCCOCCOCCOCCOCCC(=O)NCCCC[C@H](NC(C)=O)C(=O)N3CCC[C@H]3C(=O)N[C@@H](CC(C)C)C(=O)N3CCC[C@H]3C(=O)N(C)[C@@H](CCCNC(=N)N)C(=O)N[C@H](C(=O)N[C@@H](CCCNC(=N)N)C(=O)N[C@@H](Cc3ccc(O)cc3)C(=O)O)C(C)(C)C)C2=O)C(C)C)cc1)C(C)C (stereo partly shown) [Compound 96]
[1]; NTSR1 scrambled compound
  IC50: 76.7 nM
